Where two headings read alike, the source gives them in different places.

Usually IC50 stands for the concentration at which inhibition is half-maximal.

Common to all, as to assay type: cell-based
The test system of assay [1] is Ca^+2 influx in Jurkat cells (clone E6-1). Put plainly: Calcium influx assay (thapsigargin-stimulated, Fluo-3). To be noted: Homo sapiens; Jurkat cells clone E6-1, thapsigargin 100 nM, 10 min preincubation. Here is the method:
Jurkat cells (clone E6-1) are pelleted by centrifugation, washed twice, and resuspended in RPMI 1640 containing, […], 1 % fetal calf serum, 3 μM Fluo-3-AM, 13.5 μl/ml Pluronic F 127 (Molecular Probes) and incubated for 1 hour at 37° C. The loaded cells are washed twice in Hanks Balanced Salt Solution containing 10 mM HEPES. The cells are resuspended in HBSS containing 10 mM HEPES, and dispensed into 96-well Dynatech black microtiter plates at 2×10^5 cells/well. The cells are preincubated with compounds for 10 minutes at room temperature. Baseline fluorescence of unstimulated cells is measured using an SLT fluorescent microtiter plate reader with an excitation wavelength of 495 nm and emission wavelength of 538 nm. Thapsigargin is then added to a final concentration of 100 nM. Following a 5 minute incubation, fluorescence of thapsigargin treated cells is measured. Delta fluorescence values are determined by subtracting baseline fluorescence values from thapsigargin induced fluorescence values.

Assay [2] concerns IL-2 production in T lymphocytes (CD3+/CD4+ cells). The assay can be described thus: IL-2 production assay, Protocol B (antiCD3/antiCD28 as stimuli). The following applies: T-lymphocyte; human T lymphocytes, anti-CD3/anti-CD28 and goat anti-mouse coated beads, 16 hour. Here is the method:
Protocol B (antiCD3/antiCD28 as stimuli)
Human peripheral blood is obtained from healthy donors by venipuncture and the mononuclear cell fraction is prepared by centrifugation on Ficoll Hypaque (Phamacia) density gradients. Contaminating red blood cells are lysed and the CD3+/CD4+ cells are purified using immunoaffinity columns (R&D Systems or CellPro). The T lymphocytes are plated at 1-1.5×10^5 cells/well in a 96 well microtiter plate, and incubated with serial dilutions of compounds for 20 minutes at 37° C. The T cells are activated by the addition of 0.6 ng/ml anti-CD3 (Immunotech), 500 ng/ml anti-CD28 (Biodesign) and 2×10^5 goat anti-mouse coated beads (Dynal). The final volume of the assay is 200 μl. Following a 16 hour incubation at 37° C., the cells are pelleted, and the supernatants are removed and collected and stored at -70° C. until assayed for interleukin-2 using a commercial ELISA kit (R&D Systems).

Assay [3] relates to IL-2 production in CD3+/CD4+ cells. Put plainly: IL-2 production assay, Protocol A (ionomycin and PMA as stimuli). To be noted: human CD3+/CD4+ cells, ionomycin 1 μg/ml and PMA 10 ng/ml, 16 hr. The protocol:
Protocol A (ionomycin and […] as stimuli)
Human peripheral blood is obtained from healthy donors by venipuncture and the mononuclear cell fraction is prepared by centrifugation on Ficoll Hypaque (Phamacia) density gradients. Contaminating red blood cells are lysed and the CD3+/CD4+ cells are purified using immunoaffinity columns (R&D Systems or CellPro). The cells are resuspended and dispensed in 96 well microtiter plates. Test compounds are added to the cells approximately 15 minutes prior to stimulation with ionomycin (1 μg/ml) and PMA (10 ng/ml). The final volume of the assay is 100 μL. Following a 16 hr incubation at 37° C., the cells are pelleted by centrifugation, and the supernatants are collected and stored at -70° C. until assayed for IL-2 using a commercial ELISA kit (Genzyme).

Assay [4] concerns IL-2 promoter. The assay can be described thus: IL-2 promoter assay (luciferase reporter in Jurkat cells). The following applies: Homo sapiens. From the text:
All the known regulatory features of IL-2 gene are contained within a ~300 bp sequence immediately upstream of the open reading frame. […] The resulting construct, pIL2P-luc, and a vector containing a neomycin resistance gene, pcDNA/Neo (Invitrogen), are linearized and stably transfected into Jurkat cells (a human T cell line) by electroporation.
For screening compounds, the cells are pelleted by centrifugation, washed once with PBS, resuspended in RPMI (phenol red-free) containing 5% FBS, and dispensed into 96-well, white microtiter plates (Packard) at 50,000 cells/well. The cells are pre-incubated with compounds (1 μg/ml) for 15 min prior to addition of ionomycin (1 μg/ml) and PMA (10 ng/ml) in a final volume of 100 μl. Following a 5 hr incubation at 37° C. in a humidified incubator, 100 μl of Luc-Lite lysis buffer/luciferase assay buffer (Promega) is added and luminescence measured using a Packard TopCount scintillation counter/luminometer.

`Cc1ccc(-c2cncc3[nH]c4ccccc4c23)s1` [Compound 39]: the values for the half-inhibitory concentration (IC50) in assay [1] and in assay [2] were 0.7 µM and 9.5 µM, respectively.
On the same counts, the results for `COc1ccc(-c2cncc3[nH]c4ccccc4c23)cc1OC` [Compound 29] are 2.7 µM and 1.6 µM.
As to `CN(C)c1ccc(-c2cncc3[nH]c4ccccc4c23)cc1` [Compound 24], the IC50 in assay [1] was 1.6 µM; in assay [2], 0.17 µM.
On the same counts, the results for `c1ccc(Cc2cncc3[nH]c4ccccc4c23)cc1` [Compound 37] are 2.2 µM and more than 25 µM.
Consider `c1cncc(-c2cncc3[nH]c4ccccc4c23)c1` [Compound 14], for which the half-maximal inhibitory concentration (IC50) came to 29 µM in assay [1], 36 µM in assay [3] and 22 µM in assay [2].
Take `c1ccc2cc(-c3cncc4[nH]c5ccccc5c34)ccc2c1` [Compound 42]: the IC50 in assay [1] came out at 1.3 µM; in assay [2], 2.5 µM.
Regarding `COc1ccc(-c2cncc3c2c2ccccc2n3Cc2ccccc2)cc1` [Compound 10], the half-maximal inhibitory concentration (IC50) is 4.6 µM in assay [1], 27 µM in assay [3] and more than 25 µM in assay [2].
Take `COc1cc(-c2cncc3[nH]c4ccccc4c23)cc(OC)c1OC` [Compound 31]: the results for the IC50 in assay [1] and in assay [2] were 3.3 µM and 2.8 µM, respectively.
Take `Clc1ccc(-c2cncc3[nH]c4ccccc4c23)cc1` [Compound 13]: the half-maximal inhibitory concentration (IC50) in assay [1] was determined as 0.5 µM; in assay [3] it was 0.8 µM; in assay [2], 8.1 µM.
With `COc1cc(OC)cc(-c2cncc3[nH]c4ccccc4c23)c1` [Compound 28], the IC50 in assay [1] is 0.7 µM; in assay [2] it was 4.8 µM.
As for `Cc1ccnc(-c2cncc3[nH]c4ccccc4c23)c1` [Compound 40], the 50% inhibitory concentration (IC50) was 14.4 µM in assay [1] and more than 25 µM in assay [2].
On the same counts, the results for `Cc1noc(-c2cncc3[nH]c4ccccc4c23)n1` [Compound 43] are more than 45 µM and more than 25 µM.
The like results for `Cc1ccc(-c2cncc3[nH]c4ccccc4c23)c(C)c1` [Compound 30] were, in that order, 1.7 µM and 5.9 µM.
Turning to `Cc1ccc(-c2cncc3[nH]c4cc(C)ccc4c23)cc1` [Compound 17], the IC50 in assay [1] stood at 0.4 µM; in assay [2] it was 4.2 µM.
Take `Clc1ccc(-c2cncc3[nH]c4ccccc4c23)cc1Cl` [Compound 32]: the IC50 in assay [1] came to 1.5 µM; in assay [2], 8.9 µM.
On the same counts, the results for `Cc1ccc(-c2cncc3[nH]c4c(C)cccc4c23)cc1` [Compound 18] are 0.7 µM and 5.4 µM.
In the case of `Cc1cccc(-c2cncc3[nH]c4ccccc4c23)c1` [Compound 9], the IC50 in assay [1] is 1.1 µM; in assay [3], 5 µM; in assay [2] it was more than 25 µM.
As to `COc1ccc(-c2cncc3[nH]c4ccc(Cl)cc4c23)cc1` [Compound 6], the half-inhibitory concentration (IC50) in assay [1] was 14 µM; in assay [3] it was 9.2 µM; in assay [2] it was more than 25 µM; in assay [4] (Jurkat luciferase reporter cells, ionomycin 1 μg/ml and PMA 10 ng/ml, 5 hr, read-out: IL-2 PROMOTER IC50), 3.2 µM.
On to `COc1ccccc1-c1cncc2[nH]c3ccccc3c12` [Compound 11], for which the IC50 in assay [1] is 6.4 µM; in assay [3] it was 3 µM; in assay [2] it was 20 µM.
As for `COC(=O)c1cccc2c1[nH]c1cncc(-c3ccc(C)cc3)c12` [Compound 36], the 50% inhibitory concentration (IC50) was found to be 3.3 µM in assay [1] and 17 µM in assay [2].
As for `c1ccc(-c2cncc3[nH]c4ccccc4c23)cc1` [Compound 2, 4-Phenyl-β-carboline], the values for the half-inhibitory concentration (IC50) in assay [1] and in assay [3] were 2.2 µM and 14 µM, respectively.
Turning to `O=C(c1ccccc1)c1ccc(-c2cncc3[nH]c4ccccc4c23)cc1` [Compound 25], in assay [1], the 50% inhibitory concentration (IC50) is 7.7 µM.
Consider `CCCc1cncc2[nH]c3ccccc3c12` [Compound 3, 4-Propyl-β-carboline], for which the 50% inhibitory concentration (IC50) in assay [1] came out at 17.2 µM; in assay [3] it was 38 µM; in assay [2] it was 21 µM.
Consider `Cc1ccc(-c2cncc3[nH]c4ccc(C)cc4c23)cc1` [Compound 16], for which the results for the IC50 in assay [1] and in assay [2] were 4.5 µM and more than 25 µM, respectively.
Turning to `COc1ccc(-c2cncc3[nH]c4ccccc4c23)cc1C` [Compound 33], the half-inhibitory concentration (IC50) stood at 1 µM in assay [1] and 5.3 µM in assay [2].
As to `CC(C)c1noc(-c2cncc3[nH]c4ccccc4c23)n1` [Compound 44], the half-inhibitory concentration (IC50) is 1.3 µM in assay [1] and less than 10 µM in assay [2].
As to `Cc1ccc(-c2cncc3[nH]c4cc(CO)ccc4c23)cc1` [Compound 34], the IC50 in assay [1] was 2.4 µM; in assay [2], 7.7 µM.
For the compound `Cc1ccc(-c2cncc3[nH]c4cccc(C)c4c23)cc1` [Compound 15], the IC50 was 0.9 µM in assay [1] and 9 µM in assay [2].
On the same counts, the results for `CCOC(=O)c1ccc(-c2cncc3[nH]c4ccccc4c23)cc1` [Compound 19] are 3.4 µM and 6.3 µM.
The like results for `COc1ccc(-c2cncc3[nH]c4ccccc4c23)c(OC)c1` [Compound 27] were, in that order, 1.3 µM and 5.6 µM.
As to `OCc1ccc(-c2cncc3[nH]c4ccccc4c23)cc1` [Compound 23], the IC50 in assay [1] turned out to be 15.2 µM.
Same read-out and setting: the same measure for `COC(=O)c1ccc2c(c1)[nH]c1cncc(-c3ccc(C)cc3)c12` [Compound 35]: 0.7 µM.
For `c1ccc2c(c1)[nH]c1cncc(C3CCCCC3)c12` [Compound 38], the 50% inhibitory concentration (IC50) in assay [1] was 2.2 µM; in assay [2], more than 25 µM.
On the same counts, the results for `CC(C)c1ccc(-c2cncc3[nH]c4ccccc4c23)cc1` [Compound 20] are 0.3 µM and 1.1 µM.
`COc1ccc(-c2cncc3c2c2ccccc2n3C)cc1` [Compound 8]: the 50% inhibitory concentration (IC50) in assay [1] is 2.2 µM; in assay [3] it was more than 20 µM; in assay [2] it was 7.4 µM.
For `C=CC[C@@H]1/C=C(\C)C[C@H](C)C[C@H](OC)[C@H]2O[C@@](O)(C(=O)C(=O)N3CCCC[C@H]3C(=O)O[C@H](/C(C)=C/[C@@H]3CC[C@@H](O)[C@H](OC)C3)[C@H](C)[C@@H](O)CC1=O)[C@H](C)C[C@@H]2OC` [FK506, reference compound], the IC50 in assay [4] (Jurkat, read-out: inhibition of luciferase activity, IC50) was 0.0003 µM.
With `Oc1ccc(-c2cncc3[nH]c4ccccc4c23)cc1` [Compound 21], the IC50 in assay [1] was 2.9 µM.
For the compound `Cn1c2ccccc2c2c(-c3ccc(C(F)(F)F)cc3)cncc21` [Compound 26], the IC50 in assay [1] is 2.5 µM; in assay [2], more than 25 µM.
Turning to `COc1ccc2c(c1)[nH]c1cncc(-c3ccc(C)cc3)c12` [Compound 22], the values for the half-maximal inhibitory concentration (IC50) in assay [1] and in assay [2] were 1.7 µM and 5.8 µM, respectively.
The like results for `Cc1cnc(-c2cncc3[nH]c4ccccc4c23)s1` [Compound 41] were, in that order, 17.7 µM and more than 25 µM.

(Values after patent US6093723A, “4-substituted beta-carbolines and analogs thereof” (Boehringer Ingelheim Pharmaceuticals, Inc., priority 1997, dated 2000).)
